Source: ChEMBL document CHEMBL1129432, “Structure-activity relationships of a series of novel (piperazinylbutyl)thiazolidinone antipsychotic agents related to 3-[4-[4-(6-fluorobenzo[b]thien-3-yl)-1-piperazinyl]butyl]-2,5,5- trimethyl-4-thiazolidinone maleate” (J Med Chem, 1996)
pIC50: −log10 of the molar value.

How the values were obtained:
[1] = target: T1, 5-hydroxytryptamine receptor 1A (Rattus norvegicus, UniProt P19327); assay: Binding affinity towards serotonin 5-HT1A receptor was determined in rat hippocampus using [3H]8-OH-DPAT as ligand; assay type: tissue-based
T1 sequence (P19327 whole entry): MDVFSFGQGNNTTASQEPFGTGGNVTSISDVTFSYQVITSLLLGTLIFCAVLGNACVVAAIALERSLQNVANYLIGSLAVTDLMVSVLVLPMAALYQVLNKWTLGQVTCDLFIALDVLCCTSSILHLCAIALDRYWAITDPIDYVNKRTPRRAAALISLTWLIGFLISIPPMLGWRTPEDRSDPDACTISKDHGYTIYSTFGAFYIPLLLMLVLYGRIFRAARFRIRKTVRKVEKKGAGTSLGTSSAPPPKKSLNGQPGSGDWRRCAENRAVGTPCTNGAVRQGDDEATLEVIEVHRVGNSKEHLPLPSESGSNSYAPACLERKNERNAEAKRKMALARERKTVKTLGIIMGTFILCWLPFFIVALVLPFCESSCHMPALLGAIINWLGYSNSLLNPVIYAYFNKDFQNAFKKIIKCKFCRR

D(2) dopamine receptor = D(2) dopamine receptor (Rattus norvegicus, UniProt P61169); assay: Binding affinity towards Dopamine receptor D2 was determined in rat striatum using [3H]- spiperone as radioligand; assay type: tissue-based
[2] = target: Serotonin 2 (5-HT2) receptor (Rattus norvegicus, UniProt P30994+P08909+P14842); assay: Binding affinity towards serotonin 5-HT2 receptor was determined in rat cortex using [3H]spiperone as ligand
[3] = Intraperitoneal effective dose required for inhibition of apomorphine-induced stereotypy in rat; assay type: functional; details: ip
Rattus norvegicus [4] = assay: Compound at an intraperitoneal dose of 20 mg/Kg was tested for the inhibition of apomorphine-induced stereotypy in rat; assay type: functional; design: scale not given: the % may be the effect or the level left
[5] = Compound at an intraperitoneal dose of 40 mg/Kg was tested for the inhibition of apomorphine-induced stereotypy in rat; assay type: functional; design: scale not given: the % may be the effect or the level left
Rattus norvegicus [6] = assay: Compound at an intraperitoneal dose of 80 mg/Kg was tested for the inhibition of apomorphine-induced stereotypy in rat; assay type: functional; design: scale not given: the % may be the effect or the level left
Rattus norvegicus [7] = assay: Compound at an intraperitoneal dose of 2.5 mg/Kg was tested for the inhibition of apomorphine-induced stereotypy in rat; assay type: functional; design: scale not given: the % may be the effect or the level left
Rattus norvegicus [8] = assay: Compound at an intraperitoneal dose of 5 mg/Kg was tested for the inhibition of apomorphine-induced stereotypy in rat; assay type: functional; design: scale not given: the % may be the effect or the level left
Rattus norvegicus [9] = assay: Compound at an intraperitoneal dose of 10 mg/Kg was tested for the inhibition of apomorphine-induced stereotypy in rat; assay type: functional; design: scale not given: the % may be the effect or the level left

Chain of D(2) dopamine receptor (P61169 whole entry): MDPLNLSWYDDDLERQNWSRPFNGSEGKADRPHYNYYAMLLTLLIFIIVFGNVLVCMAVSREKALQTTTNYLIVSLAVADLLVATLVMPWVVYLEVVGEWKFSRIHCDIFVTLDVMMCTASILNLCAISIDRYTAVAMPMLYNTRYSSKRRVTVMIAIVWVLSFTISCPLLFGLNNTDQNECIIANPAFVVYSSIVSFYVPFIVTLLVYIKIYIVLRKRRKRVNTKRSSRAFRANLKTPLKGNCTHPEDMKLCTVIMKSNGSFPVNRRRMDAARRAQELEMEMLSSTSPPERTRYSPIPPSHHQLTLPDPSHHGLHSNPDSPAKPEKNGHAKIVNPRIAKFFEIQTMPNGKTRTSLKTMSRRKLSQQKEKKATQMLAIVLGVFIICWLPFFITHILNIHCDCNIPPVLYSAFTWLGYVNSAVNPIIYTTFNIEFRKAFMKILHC

SMILES | pIC50 [1] | pIC50 (D(2) dopamine receptor) | IC50 [2] [nM] | further results
CC1SC2(CCCC2)C(=O)N1CCCCN1CCN(c2cn(-c3ccccc3)c3ccccc23)CC1 (stereo not given) | 4.93 | 6.45 | 98.1 | ED50 [3]: 41.7 mg/kg
COc1ccccc1N1CCN(CCCCN2CSC3(CCCC3)C2=O)CC1 | 8.70 | 6.82 | 492 | –
Cc1cccc(N2CCN(CCCCN3C(=O)C(C)(C)SC3(C)C)CC2)c1 | 7.42 | 5.74 | 439 | –
CC1SCN(CCCCN2CCN(c3nsc4ccccc34)CC2)C1=O (stereo not given) | 7.96 | 7.07 | 5 | Activity (Rattus norvegicus [4]): 0%; Activity [5]: 17%
O=C1CSCN1CCCCN1CCN(c2cccc(Cl)c2)CC1 | 7.24 | 5.66 | – | –
O=C1C(CC(F)(F)F)SCN1CCCCN1CCN(c2nsc3ccccc23)CC1 (stereo not given) | 8.52 | 6.87 | – | ED50 [3]: 3.3 mg/kg
CC1(C)SCC(=O)N1CCCCN1CCN(c2nsc3ccccc23)CC1 | 8.15 | 6.71 | 12 | –
CC1(C)SCN(CCCCN2CCN(c3nsc4ccccc34)CC2)C1=O | 8.10 | – | 1 | ED50 [3]: 8.9 mg/kg
Cc1ccccc1N1CCN(CCCCN2CSCC2=O)CC1 | 7.21 | 5.79 | – | –
CC1(C)SCN(CCCCN2CCN(c3cc4ccccc4cn3)CC2)C1=O | 6.20 | 5.07 | 85 | –
O=C1CSCN1CCCCN1CCN(c2ccccc2Cl)CC1 | 7.64 | 6.19 | – | –
O=C1CSCN1CCCCN1CCN(c2ccc(Cl)cc2)CC1 | 5.89 | 5.06 | – | –
CC1SC2(CCCC2)C(=O)N1CCCCN1CCN(c2csc3cc(Cl)ccc23)CC1 (stereo not given) | 6.11 | 6.21 | 580 | –
Cc1ccccc1N1CCN(CCCCN2CSC(C)(C)C2=O)CC1 | 7.89 | 5.75 | 569 | –
CSc1cccc(N2CCN(CCCCN3C(=O)CSC3(C)C)CC2)c1 | 8.05 | 5.61 | 503 | –
CC1SC(C)(C)C(=O)N1CCCCN1CCN(c2csc3cc(Cl)ccc23)CC1 (stereo not given) | 6.07 | 5.33 | 1540 | –
Cc1cccc(N2CCN(CCCCN3CSCC3=O)CC2)c1C | 7.08 | 6.11 | – | –
Cc1nc2n(c(=O)c1CCN1CCC(c3noc4cc(F)ccc34)CC1)CCCC2 [RISPERIDONE] | – | – | – | ED50 [3]: 3.2 mg/kg
CC(C)(O)C1SCN(CCCCN2CCN(c3nsc4ccccc34)CC2)C1=O (stereo not given) | 7.92 | 7.54 | 18.9 | ED50 [3]: 2.3 mg/kg
O=C1N(CCCCN2CCN(c3cn(-c4ccccc4)c4ccccc34)CC2)CSC12CCCCC2 | – | 6.33 | 45 | ED50 [3]: 27.4 mg/kg

SMILES | pIC50 [1] | pIC50 (D(2) dopamine receptor) | IC50 [2] [nM] | further results
Cc1cccc(N2CCN(CCCCN3CSC(C)(C)C3=O)CC2)c1C | 8.22 | 6.04 | 414 | –
CC1SC(C)(C)C(=O)N1CCCCN1CCN(c2nsc3cc(Cl)ccc23)CC1 (stereo not given) | – | – | 271 | –
O=C1N(CCCCN2CCN(c3csc4ccccc34)CC2)CSC12CCCCC2 | 6.99 | 6.66 | 196 | Activity [5]: 33%; Activity (Rattus norvegicus [6]): 50%
CC1(C)SCN(CCCCN2CCN(c3cn(-c4ccc(F)cc4)c4ccccc34)CC2)C1=O | 5.63 | 6.88 | 53 | ED50 [3]: 7.1 mg/kg
Cc1cccc(N2CCN(CCCCN3C(=O)CSC3(C)C)CC2)c1 | 7.59 | 5.43 | – | –
CC1SC(C)(C)C(=O)N1CCCCN1CCN(c2cn(-c3ccccc3)c3cc(F)ccc23)CC1 (stereo not given) | 5.09 | 5.96 | 119 | –
O=C1CSCN1CCCCN1CCN(c2cccc(C(F)(F)F)c2)CC1 | 7.47 | 5.71 | – | –
CC1(C)SCN(CCCCN2CCN(c3ccc4ccccc4n3)CC2)C1=O | 6.82 | – | 446 | –
O=C1N(CCCCN2CCN(c3nsc4cc(Cl)ccc34)CC2)CSC12CCCCC2 | 6.01 | 6.17 | 1060 | Activity (Rattus norvegicus [4]): 0%; Activity [5]: 80%
O=C1CSCN1CCCCN1CCN(c2nsc3ccccc23)CC1 | 7.96 | 6.65 | 7 | –
Cc1cccc(N2CCN(CCCCN3CSCC3=O)CC2)c1 | 6.85 | 4.90 | – | –
CC1SC(C)(C)C(=O)N1CCCCN1CCN(c2cn(-c3ccccc3)c3ccccc23)CC1 (stereo not given) | 5.59 | 6.70 | 186 | Activity [5]: 0%; Activity (Rattus norvegicus [6]): 67%
CC1SC(C)(C)C(=O)N1CCCCN1CCN(c2cn(-c3ccc(F)cc3)c3ccccc23)CC1 (stereo not given) | 5.52 | 7.23 | 126 | ED50 [3]: 16.4 mg/kg
CC(C)(O)C1SCN(CCCCN2CCN(c3csc4cc(F)ccc34)CC2)C1=O (stereo not given) | 7.04 | 6.34 | 105 | Activity (Rattus norvegicus [7]): 10%; Activity (Rattus norvegicus [8]): 40%
COc1ccccc1N1CCN(CCCCN2C(=O)C(C)(C)SC2(C)C)CC1 | 7.74 | – | – | –
O=C1CSCN1CCCCN1CCN(c2nc3ccccc3s2)CC1 | 6.44 | – | 8420 | –
COc1ccccc1N1CCN(CCCCN2C(=O)CSC2(C)C)CC1 | 8.00 | 6.29 | – | –
COc1cccc(N2CCN(CCCCN3CSCC3=O)CC2)c1 | 6.86 | 5.13 | – | –
CC1(C)SC(C)(C)N(CCCCN2CCN(c3nsc4ccccc34)CC2)C1=O | 7.77 | 6.70 | 3.5 | –
Cc1cccc(N2CCN(CCCCN3CSC(C)(C)C3=O)CC2)c1 | 7.92 | – | – | –

SMILES | pIC50 [1] | pIC50 (D(2) dopamine receptor) | IC50 [2] [nM] | further results
CC1SCC(=O)N1CCCCN1CCN(c2cccc(Cl)c2)CC1 (stereo not given) | 8.00 | 5.65 | – | –
O=C1N(CCCCN2CCN(C3=NS(=O)(=O)c4ccccc43)CC2)CSC12CCCC2 | – | – | > 20000 | –
O=C1N(CCCCN2CCN(c3csc4ccccc34)CC2)CSC12CCCC2 | 8.70 | 6.61 | 16 | –
CC1(C)SCC(=O)N1CCCCN1CCN(c2cccc(Cl)c2)CC1 | – | 6.08 | – | –
CC1(C)SCN(CCCCN2CCN(c3cccc(C(F)(F)F)c3)CC2)C1=O | 8.15 | 5.79 | 90 | –
CC1SC(C)(C)C(=O)N1CCCCN1CCN(c2nsc3ccccc23)CC1 (stereo not given) | 8.15 | – | 2 | Activity (Rattus norvegicus [4]): 0%; Activity [5]: 40%
O=C1N(CCCCN2CCN(c3nsc4ccccc34)CC2)CSC12CCCC2 | 8.70 | – | 3 | Activity (Rattus norvegicus [9]): 90%
CC1(C)SCN(CCCCN2CCN(c3cn(-c4ccccc4)c4ccccc34)CC2)C1=O | 5.76 | 6.72 | 294 | ED50 [3]: 19.6 mg/kg
CC1(C)SCN(CCCCN2CCN(c3csc4cc(F)ccc34)CC2)C1=O | – | 7.85 | 10 | Activity (Rattus norvegicus [9]): 0%
O=C1N(CCCCN2CCN(c3nsc4ccccc34)CC2)CSC12Cc1ccccc1C2 | 7.28 | 6.16 | 1110 | Activity [5]: 0%; Activity (Rattus norvegicus [6]): 50%
COc1ccccc1N1CCN(CCCCN2CSC(C)C2=O)CC1 (stereo not given) | 6.66 | – | – | –
O=C1CSCN1CCCCN1CCN(c2ccc3ccccc3n2)CC1 | 6.48 | – | 641 | –
COc1ccccc1N1CCN(CCCCN2CSC(C)(C)C2=O)CC1 | 7.96 | 6.26 | 588 | –
Cc1cc2c(s1)Nc1ccccc1N=C2N1CCN(C)CC1 [OLANZAPINE] | – | – | 47 | –
O=C1N(CCCCN2CCN(c3cn(-c4ccc(F)cc4)c4ccccc34)CC2)CSC12CCCCC2 | 5.04 | 7.74 | 142 | –
O=C1N(CCCCN2CCN(c3nsc4ccccc34)CC2)CSC12CCCCC2 | 8.70 | – | 18 | Activity (Rattus norvegicus [9]): 100%
CC1(C)SCC(=O)N1CCCCN1CCN(c2cccc(C(F)(F)F)c2)CC1 | – | 5.95 | – | –
O=C1CSCN1CCCCN1CCN(c2ccc(F)cc2)CC1 | 6.85 | – | – | –
CC1(C)SCN(CCCCN2CCN(c3nc4ccccc4s3)CC2)C1=O | 5.86 | – | 2310 | –
